The values below come from US20220381657A1, “METHOD FOR PREPARING BIOLOGICAL MATERIAL HAVING EXCELLENT LIGHT-TRANSMITTING PROPERTY” (RIKEN, priority 2016, published 2022).

“Also recorded” adds a separate entry of the source. Read-outs that look alike come from different tables or passages of the source.

The conditions of data set [1]: for 400 nm: OD at 400 nm of the chemical.
A further data set has as its system bovine coagulated blood. Description: Decoloring screening: heme eluted from bovine coagulated blood (OD420-OD700). The following applies: decolorization; for 700 nm calibrated 420 nm Average: OD420 calibrated by OD700; for integrated value 500-700 nm Average: integrated absorbance 500-700 nm.
Another data set deals with EGFP (Aequorea victoria, UniProt P42212, F64L/H231L/S65T). It is filed as biochemical. The following applies: for 2nd quenching assay EGFP fluorescence: Table 3; for retention of fluorescence of a fluorescent protein: stated in the description. The procedure:
(FIG. 7). […] A mouse hemisphere was treated with use of each 10 wt % chemical solution at 37° C. for 3 days, and was washed with PBS. Subsequently, the mouse hemisphere was subjected to refractive index adjustment with CUBIC-2A.

In a further data set the test system is Serius. The note with it: relative fluorescence.
Data set [2] can be described thus: Refractive index of high-concentration aqueous solution. The following applies: Table 3; chemical conc. 70 wt %. It is filed as physicochemical. The text has this: (§1) The refractive index of an aqueous solution is commonly known to increase in a solute concentration-dependent manner, and the refractive index of a reagent per unit weight of the reagent varies among individual reagents. Accordingly, two properties are required in order to prepare a high refractive index aqueous solution: (1) an extremely high water-solubility and (2) a […] which allows achieving a high refractive index in a low-concentration aqueous solution.

The subject of data set [3] is fixed brain tissue suspension. As to the kind of experiment: 1st delipidation assay: solubilization of fixed brain tissue suspension, turbidity at 600 nm. Details: species or system mice. The following applies: Table 1; 10 wt % chemical, fixed mouse brain suspension, 37° C. overnight; PBS = 1.000.
In a further data set the test system is mouse hemisphere. As to the kind of experiment: Delipidation and clearing of mouse hemisphere (transmittance, phospholipid and cholesterol content). As for the experimental part: Subsequently, the delipidation efficiency of the series of compounds in mammalian tissue was examined. […] The transmittance of the brain tissue was measured, and then the brain tissue was washed with PBS and was disrupted. […] It was thus shown that the above basic chemicals and some neutral chemicals were better than the detergents from the viewpoint of permeability with respect to tissue. […] Subsequently, the mouse hemisphere was subjected to refractive index adjustment with CUBIC-2A. […] Accordingly, #0414 (N-butyldiethanolamine) was selected as a highly-efficient delipidation chemical.

A further data set relates to mouse spleen. Description: Decoloring of mouse spleen (OD420 of supernatant, transmissive image). The following applies: 10 wt % solution, 37° C. overnight.
Another data set concerns mouse brain. As to the kind of experiment: Swelling and clearing of delipidated mouse brain. The following applies: CUBIC-1 delipidated brain, shaken 3 days.
Data set [4] is described as follows: 1st RI evaluation assay: refractive index at 589 nm of 10 wt % aqueous solution. It counts as physicochemical. The note with it: Table 3.
Excerpt: as §1

In turn, `CN(C)C(=O)c1ccccc1` [#0788, N,N- Dimethyl- benzamide] returned a 400 nm in data set [1] of 0.049. Further, the OD400 in data set [1] (Table 3) is on record as 0.049. Moreover, in the data set on bovine coagulated blood, the “700 nm calibrated 420 nm Average” value was 1.26 and the “integrated value 500-700 nm Average” value amounted to 1.08. For the same compound, on EGFP, the “2nd quenching assay EGFP fluorescence” value is on record as “quench free” and the “retention of fluorescence of a fluorescent protein” value (“retention” for short) was “allowing retention of fluorescence of a fluorescent protein”. Further, the pH (Table 3) came out at 10.7. Further, the pH ([…]) was determined as 10.7. In addition, the “Fluorescence quench Average” value in the data set with Serius amounted to 0.76. The compound also showed an RI in [2] of 1.4833.
The compound `CCCCC(O)CO` (stereo not shown) [#1051, 1,2-Hexanediol] yielded an OD400 in data set [1] (Table 1) of 0.048. The pH (Table 1) came out at 9.3. For the same compound, in data set [3], the “1st delipidation assay Relative OD600” value came out at 0.300. The “degree of delipidation and clearing of mouse hemisphere” value in the data set with mouse hemisphere (10 wt % chemical, 37° C., 3 days, then CUBIC-2A, compared with detergents #1035, #1455, #1460, Triton X-100) is “higher degrees of delipidation and clearing”.
Consider `CCn1ccnc1` [#0938, 1-ethylimidazole], for which the 400 nm in data set [1] worked out at 0.053. Also, in the data set with bovine coagulated blood, the “700 nm calibrated 420 nm Average” value is 6.19 and the “integrated value 500-700 nm Average” value was 3.41. The “retention” value at EGFP is listed as “allows fluorescence of a fluorescent protein to be retained”. For the setting “[…]”, this compound gave a pH of 12.1. Also, the “Fluorescence quench Average” value with Serius is 0.80. In the data set on mouse spleen, the “mouse spleen decoloring activity” value is reported as “highest”.
As for `CCCCN(CCO)CCO` [#0414, N-Butyldiethanolamine], the 400 nm in data set [1] is given as 0.05. Also, in data set [1] (Table 1), the OD400 is 0.05. Moreover, in the data set with bovine coagulated blood, the “700 nm calibrated 420 nm Average” value stood at 1.30 and the “integrated value 500-700 nm Average” value is 1.45. This compound had a pH (Table 1) of 12.7. Further, the pH ([…]) is 12.7. For the same compound, the “1st delipidation assay Relative OD600” value in data set [3] is recorded as 0.261. Besides, the organ transparency result in the data set on mouse hemisphere (#0414 versus #0389, basic chemicals) is given as “superiority”. Besides, the “Fluorescence quench Average” value with Serius was 0.70.
In turn, `CNC(=O)c1cccnc1` [#1283, N-Methyl- nicotinamide] returned a 400 nm in [1] of 0.063. For the same compound, the OD400 in [1] (Table 3) came out at 0.063. Further, in the data set on bovine coagulated blood, the “700 nm calibrated 420 nm Average” value is reported as 2.98 and the “integrated value 500-700 nm Average” value was 2.81. In addition, at EGFP, the “2nd quenching assay EGFP fluorescence” value is listed as “quench free” and the “retention” value is recorded as “allowing retention of fluorescence of a fluorescent protein; also recorded: allows fluorescence of a fluorescent protein to be retained”. Under “Table 3”, this compound returned a pH of 10.7. This compound also had a pH ([…]) of 10.7. The “Fluorescence quench Average” value in the data set on Serius turned out to be 0.71. This compound returned an RI in data set [2] of 1.4902.
For the compound `c1c[nH]cn1` [#1352, imidazole], in the data set on mouse brain, the “swelling of delipidated mouse brain” value is given as “high-degree of swelling”.
`Cn1ccnc1` [1-methylimidazole]: in the data set with mouse spleen, the “mouse spleen decoloring activity” value is listed as “equivalent decoloring activity”.
Consider `CNC(=S)NC` [#0637, 1,3-Dimethyl-thiourea], for which the OD400 in data set [1] (Table 3) is on record as 0.049. Besides, the “1st RI evaluation assay RI of 10% chemical” value in data set [4] came to 1.3555. The pH (Table 3) is 6.8.
In turn, `OCCNCc1ccccc1` [#0389, N-Benzyl- ethanolamine] came in with a 400 nm in data set [1] of 0.063. This compound also displayed an OD400 in [1] (Table 3) of 0.063. Moreover, in the data set on bovine coagulated blood, the “700 nm calibrated 420 nm Average” value came to 2.73 and the “integrated value 500-700 nm Average” value is listed as 2.42. Further, on EGFP, the “2nd quenching assay EGFP fluorescence” value was “quench free” and the “retention” value is “allowing retention of fluorescence of a fluorescent protein”. The pH (Table 3) was 10.9. This compound came in with a pH ([…]) of 10.9. In addition, in the data set with Serius, the “Fluorescence quench Average” value is recorded as 0.57. Also, the RI in data set [2] is reported as 1.4814.
